Results on one compound are retold here after ChEMBL document CHEMBL1137498, “Design, synthesis and biological evaluation of novel lipoamino acid-based glycolipids for oral drug delivery” (Bioorg Med Chem, 2007).

For one series, the system named is Bacillus subtilis. Kind of series: Antibacterial activity against Bacillus subtilis. The series is classed as functional.
The next series has as its system Escherichia coli. Kind of series: Antibacterial activity against Escherichia coli. The series is classed as functional.
Another series concerns Klebsiella aerogenes. The experiment in a line: Antibacterial activity against Klebsiella aerogenes. The class given is functional.
For the next series, the system named is Pseudomonas aeruginosa. The experiment in a line: Antibacterial activity against Pseudomonas aeruginosa. The class given is functional.
In the next series the test system is Staphylococcus aureus. The experiment in a line: Antibacterial activity against Staphylococcus aureus. The class given is functional.
A short description of series [1]: Apparent permeability across Caco-2 cells. The series is classed as ADME, cell-based. The following applies: human. A general note: Caco-2 cells form a polarised layer with tight junctions and transporters.

Converted amounts (≈) assume the structure as drawn.

Broadly, the MIC is the lowest concentration that inhibits growth of the organism. Low readings indicate a more susceptible organism, high ones a less susceptible organism. As usually defined, the Papp is a coefficient for how fast a substance crosses the barrier. Consider `CCN1CCN(C(=O)N[C@@H](C(=O)N[C@@H]2C(=O)N3[C@@H]2SC(C)(C)[C@@H]3C(=O)O)c2ccccc2)C(=O)C1=O` [PIPERACILLIN], for which the MIC with Bacillus subtilis came to 0.5 µg/mL (≈ 0.966 µM); against Escherichia coli it was 4 µg/mL (≈ 7.73 µM); in the series on Klebsiella aerogenes, 8 µg/mL (≈ 15.5 µM); against Pseudomonas aeruginosa it was 4 µg/mL (≈ 7.73 µM); against Staphylococcus aureus, 1 µg/mL (≈ 1.93 µM). Also, in series [1], the Papp is 0.0325 ×10⁻⁶ cm/s.
